# In patent US20160106439A1, “PNEUMATIC TOURNIQUET” (BIONUMERIK PHARMACEUTICALS, INC., priority 2013, published 2016):
# Entries after “also recorded” stand apart in the source; their conditions may differ. Read-outs that look alike come from different tables or passages of the source.
# T1: Recombinant human Trx (Homo sapiens, UniProt P10599)
# T1 sequence (P10599 1-105): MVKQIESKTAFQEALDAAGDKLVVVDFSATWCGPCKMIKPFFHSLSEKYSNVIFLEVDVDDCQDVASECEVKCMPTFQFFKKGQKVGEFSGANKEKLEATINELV
# T2: TrxR/Trx system (Homo sapiens, UniProt P10599)
# T2 construct: 6xHis (N); purchased Sigma (Trx); American Diagnostica (bovine TrxR)
# T2 sequence (P10599 1-105): T1 sequence (P10599 1-105)
# T3: TrxR/Trx insulin disulfide reduction (Homo sapiens, UniProt P10599)
# T3 construct: purchased Sigma; host or cells: E. coli (said of the Sigma Trx)
# T3 sequence (P10599 1-105): T1 sequence (P10599 1-105)
# B1: Trx-mesna: Trx covalently modified by a Tavocept-derived mesna moiety (conjugate, UniProt P10599 2-105, looked up)
# Thioredoxin: VKQIESKTAFQEALDAAGDKLVVVDFSATWCGPCKMIKPFFHSLSEKYSNVIFLEVDVDDCQDVASECEVKCMPTFQFFKKGQKVGEFSGANKEKLEATINELV
# modifications: mesna-modified
# notes: Trx covalently modified by a Tavocept-derived mesna moiety
# B2: Trx-GSH: Trx modified by glutathione, prepared with glutathione disulfide as control (conjugate, UniProt P10599 2-105, looked up)
# Thioredoxin: B1 Thioredoxin
# modifications: glutathione-modified
# notes: Trx modified by glutathione, prepared with glutathione disulfide as control
# Legend:
# WT EGFR kinase = WT EGFR kinase (Homo sapiens, UniProt P00533); experiment: WT EGFR kinase assay (ADP-glo); conditions: for more inhibition of WT EGFR relative to 4 nM Erlotinib alone: 10 μM ATP; for increased inhibition of WT EGFR relative to 20 nM Erlotinib alone: 100 μM ATP
# Sequence of WT EGFR kinase (P00533 25-1210): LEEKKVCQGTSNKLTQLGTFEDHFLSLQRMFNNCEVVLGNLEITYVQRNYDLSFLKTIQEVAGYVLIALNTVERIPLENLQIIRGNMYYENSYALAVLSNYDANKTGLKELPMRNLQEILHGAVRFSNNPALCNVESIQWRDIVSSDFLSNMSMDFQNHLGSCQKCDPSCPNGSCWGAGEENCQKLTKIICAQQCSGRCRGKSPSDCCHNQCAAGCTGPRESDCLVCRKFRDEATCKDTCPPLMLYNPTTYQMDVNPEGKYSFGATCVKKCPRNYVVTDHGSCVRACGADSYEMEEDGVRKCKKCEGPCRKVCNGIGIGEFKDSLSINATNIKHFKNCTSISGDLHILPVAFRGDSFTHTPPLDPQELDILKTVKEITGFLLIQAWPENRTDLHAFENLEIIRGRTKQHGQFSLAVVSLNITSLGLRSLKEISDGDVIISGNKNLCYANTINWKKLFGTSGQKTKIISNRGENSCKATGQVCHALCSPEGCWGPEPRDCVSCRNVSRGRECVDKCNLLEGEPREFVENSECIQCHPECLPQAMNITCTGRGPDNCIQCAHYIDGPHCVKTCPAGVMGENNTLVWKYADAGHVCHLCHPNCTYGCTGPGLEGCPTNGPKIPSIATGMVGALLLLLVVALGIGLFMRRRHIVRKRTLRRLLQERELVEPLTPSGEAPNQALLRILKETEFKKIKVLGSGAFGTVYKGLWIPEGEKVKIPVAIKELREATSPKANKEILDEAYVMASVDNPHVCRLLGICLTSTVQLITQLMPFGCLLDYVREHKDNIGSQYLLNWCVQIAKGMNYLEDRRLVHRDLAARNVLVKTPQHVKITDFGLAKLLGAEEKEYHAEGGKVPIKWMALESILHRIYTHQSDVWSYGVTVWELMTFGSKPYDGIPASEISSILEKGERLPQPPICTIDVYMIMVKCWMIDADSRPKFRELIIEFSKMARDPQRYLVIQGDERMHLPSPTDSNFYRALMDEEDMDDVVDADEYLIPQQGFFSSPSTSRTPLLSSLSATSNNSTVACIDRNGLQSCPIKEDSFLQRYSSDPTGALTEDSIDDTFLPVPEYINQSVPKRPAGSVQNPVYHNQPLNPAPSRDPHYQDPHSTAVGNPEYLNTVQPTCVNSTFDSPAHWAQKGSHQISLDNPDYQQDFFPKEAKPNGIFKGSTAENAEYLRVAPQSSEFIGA
# Recombinant human Trx [1] = target: T1, Recombinant human Trx; type: biochemical; set-up: 6xHis (N); purchased Sigma (Trx); American Diagnostica (bovine TrxR); conditions: over MSSH and MSSCE
# Experimental: See, Luthman M and Holmgren A. Rat liver thioredoxin and thioredoxin reductase: purification and characterization. […] All disulfides were added to reactions as 10x solutions in buffer. The total volume of each reaction was 0.1 mL. Reactions were initiated by the addition of TrxR and were incubated at 25° C. for 40 minutes. Reactions were analyzed using a Molecular Devices SpectraMax Plus UV/vis plate reader and the activity was calculated using a 4 minute linear portion of each assay.
# [2] = system: bovine brain microtubule protein (α-/β-tubulin); experiment: Microtubule protein polymerization assay (OD350) and electron microscopy; type: biochemical; conditions: for effect on GTP-catalyzed microtubule protein polymerization: preincubated with microtubule protein on ice 20 minutes, 37° C.
# [3] = read-out: Cmax for mesna; 41 g/m^2 Tavocept; cited from earlier work
# thioredoxin = target: T4, thioredoxin (Homo sapiens, UniProt P10599); experiment: LC-MS of thioredoxin incubations; type: binding; conditions: ion at m/z 1288.3
# T4 construct: purchased Sigma (SigmaAldrich); host or cells: E. coli
# some cell lines = experiment: Mesna cytotoxicity in vitro (unpublished data)
# Recombinant human Trx [4] = target: T1, Recombinant human Trx; experiment: LC MS of Trypsin digested Trx after incubation with Tavocept, mesna or glutathione; type: binding; set-up: purchased Sigma (SigmaAldrich); host or cells: E. coli; conditions: fragment CMPTFQFFK (cys73); 10 mM, 4 to 6 hours
# TrxR/Trx system = target: T2, TrxR/Trx system; experiment: NADPH oxidation by TrxR and Trx; type: biochemical; conditions: increasing concentrations of the substance
# [5] = single oral dose of 100 mg, healthy volunteers; cited from earlier work
# [6] = system: non-small cell lung cancer; conditions: patients >=65 years treated with carboplatin and paclitaxel; cited from earlier work
# [7] = target: T3, TrxR/Trx insulin disulfide reduction; experiment: TrxR/Trx insulin disulfide reduction assay with isolated Trx species; type: biochemical; conditions: free Tavocept or glutathione disulfide removed
molecule,measurement,setting,value
"NC(CSSCCS(=O)(=O)O)C(=O)NCC(=O)O (stereo not shown) [MSSCG, mesna-cysteinyl glycine disulfide]",more inhibition of WT EGFR relative to 4 nM Erlotinib alone,WT EGFR kinase; 0.50 mM + 4 nM Erlotinib,28%
same,more inhibition of WT EGFR relative to 4 nM Erlotinib alone,WT EGFR kinase; 0.75 mM + 4 nM Erlotinib (MSSCG series),43%
same,Substrate preference of Trx,Recombinant human Trx [1],preferred slightly
"O=S(=O)([O-])CCS.[Na+] [mesna, 2-mercapto ethane sulfonate]",effect alone on MTP polymerization or paclitaxel-induced hyperpolymerization,[2],no detectable effect
same,protection against monoaquocisplatin-induced loss of polymerization,[2]; mesna 200 μM preincubated 30 minutes with monoaquocisplatin 36 μM,prevented the monoaquocisplatin-induced loss; also recorded: able to protect
same,effect on GTP-catalyzed microtubule protein polymerization,[2],did not affect
same,effect on GTP-catalyzed microtubule protein polymerization,[2]; listed as Mesna,does not affect
same,Cmax,[3],~323 µM
same,mesna adduct on thioredoxin fragment CMPTFQFFK,thioredoxin,Cys73-mesna adduct
same,Concentrations that can be cytotoxic,some cell lines,≤ 400 µM
same,Mesna-Cysteine Adduct Detected?,Recombinant human Trx [4],presence of a mesna adduct on Cys73 of Trx
"NC(CSSCCS(=O)(=O)O)C(=O)O (stereo not shown) [MSSC, mesna-cysteine disulfide]",more inhibition of WT EGFR relative to 4 nM Erlotinib alone,WT EGFR kinase; 0.75 mM + 4 nM Erlotinib,16%
same,more inhibition of WT EGFR relative to 4 nM Erlotinib alone,WT EGFR kinase; 1.5 mM + 4 nM Erlotinib,34%
same,more inhibition of WT EGFR relative to 4 nM Erlotinib alone,WT EGFR kinase; 2.5 mM + 4 nM Erlotinib,54%
same,increased inhibition of WT EGFR relative to 20 nM Erlotinib alone,WT EGFR kinase; 0.2 mM + 20 nM Erlotinib,17%
same,increased inhibition of WT EGFR relative to 20 nM Erlotinib alone,WT EGFR kinase; 2.5 mM + 20 nM Erlotinib,15%
same,Substrate preference of Trx,Recombinant human Trx [1],preferred slightly
same,NADPH oxidation by TrxR and Trx,TrxR/Trx system,increases
"NC(CCSSCCS(=O)(=O)O)C(=O)O (stereo not shown) [MSSH, mesna-homocysteine disulfide]",NADPH oxidation by TrxR and Trx,TrxR/Trx system,increases
C#Cc1cccc(Nc2ncnc3cc(OCCOC)c(OCCOC)cc23)c1 [Erlotinib],Cmax,[5],1.39 µg/mL
"N[C@@H](CCC(=O)N[C@@H](CSSCCS(=O)(=O)O)C(=O)NCC(=O)O)C(=O)O [MSSG, mesna-glutathione disulfide]",Substrate preference of Trx,Recombinant human Trx [1],preferred slightly
same,NADPH oxidation by TrxR and Trx,TrxR/Trx system,increases
bevacizumab [Avastin],Survival advantage,[6],did not confer a survival advantage
B1,Effect on initial velocity relative to apo-Trx,[7],clear effect on initial velocity
B2,Effect on initial velocity relative to apo-Trx,[7],clear effect on initial velocity
